Laboratory results from patent publication US8628961B2, “Small molecule antagonists of phosphatidylinositol-3,4,5-triphosphate (PIP3) and uses thereof” (Tufts University, priority 2010, dated 2014).

Assays:
U87MG cells [1] = assay: Sensitization of U87MG cells to TRAIL, ATP assay; type: cell-based, human; settings: 10 ng/ml TRAIL, 48 hr
Description: FIG. 10 is a bar graph depicting that PITs, as well as Akt inhibitor VIII, sensitize U87MG cells to killing by TRAIL. U87MG cells were incubated with 50 μM PIT-1, PIT-2, PIT-1i-1 or 10 μM Akt inhibitor VIII in the presence or absence of 10 ng/ml TRAIL for 48 hr, followed by cell viability analysis using ATP assay.
Upregulation of PI3K/Akt signaling is an important mechanism of chemoresistance of cancer cells. Blume-Jensen P et al. (2001) Nature 411:355-65; Osaki M et al. (2004) Apoptosis 9:667-76. […] Puduvalli V K et al. (2005) Apoptosis 10:233-43 TRAIL represents a particularly promising anti-cancer agent due to its intrinsic selectivity towards cancer cells which is associated with the expression of the decoy receptors by many (but not all) normal cells. Abe K et al. (2000) Ann NY Acad Sci 926:52-63. […] Oka N et al. (2005) Cancer Res 65:7546-53.

HUVEC cells = assay: HUVEC migration, wound healing and transwell assays; type: cell-based, human
Description: Two models of cell migration were used, a transwell migration model and a wound closure model. Migration of cancer and endothelial cells was evaluated using 24-transwell Boyden chamber (Costar, Bedford, Mass.) with a polystyrene membrane (6.5 mm diameter, 10 μm thickness, and 8 μm pore size). Cells were suspended in serum-free media and seeded in the upper compartment of each well (2×10^4 cells/well) in the presence or absence of different compounds at the indicated concentrations. The lower compartment contained 600 μl of serum-free culture media supplemented with growth factors. After an 8-hr incubation at 37° C., cells were fixed and stained with 0.1% crystal violet. Non-migrating cells on the upper surface of the filter were removed, and the stained cells that migrated to the lower side were photographed using a phase-contrast microscope (Nikon, Japan) in five random fields. The cells were lysed with 10% acetic acid, and colorimetric determination was made at 595 nm using Wallac Victor 3 plate reader.
Cancer or endothelial cells were seeded into fibronectin-coated 96-well plates (2×10^4 cells/well). […]
Second, HUVEC were serum starved and treated with PITs (25, 50 100 μM) or PIT-1 is (100 μM) for 8 hr, followed by bFGF (10 ng/ml) stimulation for 15 min. […] The number of cell ruffles/lamellipodia was counted in five random fields.

[2] = test system: SV40-transformed mouse adult lung fibroblasts; assay: Viability of Akt1-expressing versus Akt1-3 triple knockout fibroblasts; type: cell-based
From the text: Shaughnessy J D (2008) Nature 454:172-3; Weinstein I G (2002) Science 297:63-4. Therefore, the possibility that PIT-1 may cause preferential cell death in the cells containing elevated PIP3 levels was examined. […] Li D M et al. (1998) Proc Natl Acad Sci USA 95:15406-11. […] Neshat M S et al. (2001) Proc Natl Acad Sci USA 98:10314-9.

apoptosis = assay: Apoptosis features: subG1 DNA content, Western blot of caspase-3 and PARP; type: cell-based
From the text: Since PI3K/PIP3/Akt signaling plays a critical role in the inhibition of apoptosis (Datta S R et al. (1999) Genes Dev 13:2905-27), the possibility that PITs induce apoptosis was examined. […] Proapoptotic Bcl-2 family members Bax and Bak are important mediators of apoptosis. Wei M C et al. (2001) Science 292:727-30. […] Non-apoptotic mechanisms of cell death may also play some additional, albeit less important, role in PIT-induced killing, as some cell death was still observed in Bax/Bak-deficient cells and in the presence of zVAD.fmk.

U87MG cells [3] = assay: Long-term colony formation; type: cell-based, human
[4] = Solubility (aqueous, cell media); type: physicochemical
From the text: The size of the DM-PIT-1-loaded micelles was about 15 nm with a narrow size distribution.

[5] = test system: PI3K/PDK1/Akt signaling pathway; assay: PIP3-dependent phosphorylation events in HUVEC, Western blotting; type: cell-based, human; settings: 50, 100 and 200 μM, 2 hr, bFGF
Description: Endothelial cell migration plays a central role in tumor angiogenesis. Avraamides C J et al. (2008) Nat Rev Cancer 8:604-17. […] First, human umbilical vein endothelial cells (HUVEC) cells were serum starved overnight, and treated with different concentrations of PIT-1 (50, 100 and 200 μM) for 2 hr, followed by stimulation with 10 ng/ml bFGF for 15 min, and the PIP3-dependent phosphorylation events were evaluated by Western blotting.

eIF-1 = eIF-1 (Homo sapiens (Human), UniProt P41567); assay: NMR HSQC specificity control; type: binding
Sequence of eIF-1 (P41567 whole entry, species assumed): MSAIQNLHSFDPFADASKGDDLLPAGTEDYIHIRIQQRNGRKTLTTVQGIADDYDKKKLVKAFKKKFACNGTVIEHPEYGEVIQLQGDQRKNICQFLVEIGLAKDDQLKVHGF

O=C(NC(=S)Nc1cc([N+](=O)[O-])cc(Cl)c1O)c1ccccc1 [PIT-1]
sensitization of U87MG cells to killing by TRAIL (U87MG cells [1]): substantially sensitized U87MG cells to killing by TRAIL | migration of HUVEC cells (HUVEC cells): efficiently blocked migration of HUVEC cells | loss of viability in Akt1-expressing versus Akt1-3 triple knockout fibroblasts [2]: more pronounced (P<0.01) | subG1 DNA content in cells (apoptosis; P<0.01): significant increase in subG1 DNA content | cleavage/activation of caspase-3 and processing of PARP (apoptosis; Western blot): induced the cleavage/activation | long-term colony formation by U87MG cells (U87MG cells [3]): suppressed long-term colony formation | aqueous solubility [4]: limited aqueous solubility | PI3K/PDK1/Akt signaling in HUVEC [5]: capable of blocking PI3K/PDK1/Akt signaling pathway | changes in HSQC spectra of eIF-1 (eIF-1): did not elicit any changes
